Measurements from patent publication US10908153B2, “Pseudomonas aeruginosa inhibitor compounds” (priority 2015, dated 2021).

Target: T1, PscE-PscG interaction (Pseudomonas aeruginosa, UniProt P95435+Q9I317)
T1 construct: made in house; host or cells: E. coli
Assay: ELISA test of inhibition of the PscE-PscG interaction
Format: binding
Settings: for inhibition at 50 µM: 4 h, read-out: PscE-PscG at 50 μM; for inhibitory effect compared with clioquinol: ELISA test, 50 μM, Table 2; for PscE-PscG at 50 μM: inhibition by new synthetic analogues at 50 μM, PscG 2.2 μM, PscE solution 3 μM
Experimental: 50 μL of PscG protein at 1 μM (for screening libraries) or 2.2 μM (for screening newly synthesized molecules) is incubated in a NUNC 96-well plate for 8 h at 4° C. The wells are washed three times with 200 μL of 1× PBS/0.1% Tween20®. The wells are treated overnight at 4° C. with 200 μL of a 5% milk solution in 1× PBS/0.1% Tween20®. The solution is then discarded, and the plate is drained dry.
The test is carried out as follows:
Negative control (lowest signal level): 100 μL of buffer ([…] Tris-HCl, 250 mM NaCl, pH 8.0);
Positive control (highest signal level): 50 μL of buffer and 50 μL of a test solution at 25 (library screening) or 3 μM (screening of analogue molecules) of the PscE protein;
Test of the inhibitors: 40 μL buffer, 50 μL of a solution at 25 μM (library screening) or 3 μM (screening of analogue molecules) of PscE protein and 10 μL of the solution containing the inhibitor to be tested.
The solutions are left for 4 h at room temperature.
The wells are washed three times with 200 μL of 1× PBS/0.1% Tween20®. The anti-PscE antibody diluted to 1:2,000 in 1× PBS/0.1% Tween20®, 50 μL, is added and the whole is left 2 h at room temperature. The wells are washed three times with 200 μL of 1× PBS/0.1% Tween20®. The HRP-conjugated anti-mouse antibody is diluted to 1:5,000 in 1× PBS/0.1% Tween20® and 50 μL is added and left for 2 h at room temperature. The wells are washed three times with 200 μL of 1× PBS/0.1% Tween20®.
The ELISA test is developed by adding 50 μL of TMB reagent followed by incubation for 15 minutes at room temperature in the dark. The reaction is stopped by adding 50 μL of 2N HCl. The plate is read at 450 nm.

T1 sequence (Q9I317 whole entry): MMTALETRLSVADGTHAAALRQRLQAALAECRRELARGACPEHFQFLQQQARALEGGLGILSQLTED
T1 sequence (P95435 whole entry): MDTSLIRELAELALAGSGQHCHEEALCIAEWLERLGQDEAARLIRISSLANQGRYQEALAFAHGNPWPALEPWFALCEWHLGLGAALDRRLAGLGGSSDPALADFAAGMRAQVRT

SMILES	inhibition at 50 µM [%]	inhibitory effect compared with clioquinol	PscE-PscG at 50 μM
CC(=O)Oc1c(-c2cn(CCCCCCCCOCCCc3ccc[n+](CCCCCCCCOCCCc4cccnc4)c3)nn2)cc(Cl)c2cccnc12 [molecule 43, 3-(3-(8-(4-(8-acetoxy-5-chloroquinolin-7-yl)-1H-1,2,3-triazol-1-yl)octyloxy)propyl)-1-(8-(3-(pyridin-3-yl)propoxy)octyl)pyridinium chloride]	29.5		
CC(=O)Oc1c(-c2cn(CCCCCCCCCCCCOCCCc3ccc[n+](CCCCOCCCc4cccnc4)c3)nn2)cc(Cl)c2cccnc12 [molecule 44, 3-(3-(12-(4-(8-acetoxy-5-chloroquinolin-7-yl)-1H-1,2,3-triazol-1-yl)dodecyloxy)propyl)-1-(4-(3-(pyridin-3-yl)propoxy)butyl)pyridinium chloride]	33.4		
CC(=O)Oc1c(-c2cn(CCCCCCOCCCc3ccc[n+](CCCCCCCCCCOCCCc4cccnc4)c3)nn2)cc(Cl)c2cccnc12 [molecule 45, 3-(3-(6-(4-(8-acetoxy-5-chloroquinolin-7-yl)-1H-1,2,3-triazol-1-yl)hexyloxy)propyl)-1-(10-(3-(pyridin-3-yl)propoxy)decyl)pyridinium chloride]	71.6	superior to clioquinol	
CC(=O)Oc1c(-c2cn(CCCCCCOCCCc3ccc[n+](CCCCCCCCCCCCOCCCc4cccnc4)c3)nn2)cc(Cl)c2cccnc12 [molecule 46, 3-(3-(6-(4-(8-acetoxy-5-chloroquinolin-7-yl)-1H-1,2,3-triazol-1-yl)hexyloxy)propyl)-1-(12-(3-(pyridin-3-yl)propoxy)dodecyl)pyridinium chloride]			no inhibition
CC(=O)Oc1c(-c2cn(CCCCCCCCOCCCc3ccc[n+](CCCCCCCCCCOCCCc4cccnc4)c3)nn2)cc(Cl)c2cccnc12 [molecule 47, 3-(3-(8-(4-(8-acetoxy-5-chloroquinolin-7-yl)-1H-1,2,3-triazol-1-yl)octyloxy)propyl)-1-(10-(3-(pyridin-3-yl)propoxy)decyl)pyridinium chloride]			no inhibition
CC(=O)Oc1c(-c2cn(CCCCCCCCCCOCCCc3ccc[n+](CCCCCCCCCCOCCCc4cccnc4)c3)nn2)cc(Cl)c2cccnc12 [molecule 48, 3-(3-(10-(4-(8-acetoxy-5-chloroquinolin-7-yl)-1H-1,2,3-triazol-1-yl)decyloxy)propyl)-1-(10-(3-(pyridin-3-yl)propoxy)decyl)pyridinium chloride]	72.3	superior to clioquinol	
CC(=O)Oc1c(-c2cn(CCCCCCCCCCCCOCCCc3ccc[n+](CCCCCCCCOCCCc4cccnc4)c3)nn2)cc(Cl)c2cccnc12 [molecule 49, 3-(3-(12-(4-(8-acetoxy-5-chloroquinolin-7-yl)-1H-1,2,3-triazol-1-yl)dodecyloxy)propyl)-1-(8-(3-(pyridin-3-yl)propoxy)octyl)pyridinium chloride]	69.8	superior to clioquinol	
CC(=O)Oc1c(-c2cn(CCCCCCCCCCOCCCc3ccc[n+](CCCCCCCCCCCCOCCCc4cccnc4)c3)nn2)cc(Cl)c2cccnc12 [molecule 50, 3-(3-(10-(4-(8-acetoxy-5-chloroquinolin-7-yl)-1H-1,2,3-triazol-1-yl)decyloxy)propyl)-1-(12-(3-(pyridin-3-yl)propoxy)dodecyl)pyridinium chloride]	18.9		
CC(=O)Oc1c(-c2cn(CCCCCCCCCCCCOCCCc3ccc[n+](CCCCCCCCCCOCCCc4cccnc4)c3)nn2)cc(Cl)c2cccnc12 [molecule 51, 3-(3-(12-(4-(8-acetoxy-5-chloroquinolin-7-yl)-1H-1,2,3-triazol-1-yl)dodecyloxy)propyl)-1-(10-(3-(pyridin-3-yl)propoxy)decyl)pyridinium chloride]	28.9		
CC(=O)Oc1c(-c2cn(CCCCCCCCCCCCOCCCc3ccc[n+](CCCCCCCCCCCCOCCCc4cccnc4)c3)nn2)cc(Cl)c2cccnc12 [molecule 52, 3-(3-(12-(4-(8-acetoxy-5-chloroquinolin-7-yl)-1H-1,2,3-triazol-1-yl)dodecyloxy)propyl)-1-(12-(3-(pyridin-3-yl)propoxy)dodecyl)pyridinium chloride]	3.4		
